{"source": "patent US20240189319A1", "about": "“RIFAMYCIN ANALOGS IN COMBINATION WITH VANCOMYCIN AND USES THEREOF” (Regeneron Pharmaceuticals, Inc, priority 2021, published 2024)", "key": {"[1]": {"system": "S. aureus MRSA strain NRS384", "assay": "S. aureus IV advanced disseminated infection mouse model, strain NRS384 (kidney burden)", "format": "in vivo, Staphylococcus aureus", "details": "for kidney burden reduction in combination with vancomycin, compared with rifampicin plus vancomycin (in words): Example 3B versus Example 3A; for kidney burden, combination with vancomycin versus vancomycin alone (in words): 0.01-0.25 mg/kg + vancomycin", "method": "(§1) To test the efficacy of rifamycin analogs (I) and (II) according to the disclosure in combination therapy with vancomycin in vivo, a 4-day intravenous disseminated infection model was utilized. S. aureus MSRA strain NRS384 or N315, where indicated, was grown overnight in tryptic soy broth (TSB) and sub-cultured to mid-logarithmic phase. Bacteria were then washed twice with PBS and resuspended in PBS at a concentration of 1.5×10^8 cfu/mL NRS384 or 6.0×10^8 N315. Six-week-old Balb/c mice were then infected intravenously through the tail vein with 100 uL of the bacterial suspension, for a final infectious dose of 1.5×10^7 cfu/mouse NRS384 or 6.0×10^7 N315. From one to three days post infection, indicated mice were treated with 110 mg/kg vancomycin subcutaneously twice daily where indicated. Rifamycin analogs (I) or (II) were administered subcutaneously at the indicated dose two days after infection. Mice were monitored for weight loss and body conditioning score throughout the infection. At four days post infection, mice were euthanized, and the S. aureus kidney burden was quantified by tissue homogenization followed by enumeration of colony forming units through serial dilution in PBS and plating onto trypticase soy agar plates. Data points represent the kidney burden from individual mice tested.\nIn this experiment, mice infected with S. aureus MSRA strain NRS384 were treated with vancomycin alone (control) or vancomycin in combination with 0.002 mg/kg to 25 mg/kg rifampicin, a commercially-available rifamycin analog control.\nIn this experiment, mice infected with S. aureus MSRA strain NRS384 were treated with vancomycin alone (control) or vancomycin in combination with 0.01-0.25 mg/kg rifamycin analog (I) or 0.01-0.25 mg/kg rifamycin analog (II).\nIn this experiment, mice infected with S. aureus MSRA strain NRS384 were treated with 25 mg/kg rifampicin (control) or 0.002-0.25 mg/kg rifamycin analog (II) alone or in combination with vancomycin, with vancomycin alone as a control."}, "[2]": {"system": "S. aureus MRSA strain N315", "assay": "S. aureus IV advanced disseminated infection mouse model, strain N315 (kidney burden)", "format": "in vivo, Staphylococcus aureus", "details": "for Median cfu/kidney pair / kidney burden relative to limit of detection (in words) / bacterial load relative to limit of detection (in words): Example 3D; for Median cfu/kidney pair: day 4, LOD 250", "method": "as §1\nIn this experiment, mice infected with S. aureus MSRA strain N315 were treated with 25 mg/kg rifampicin (control), or 0.01-0.75 mg/kg rifamycin analog (I), or 0.002-0.25 mg/kg rifamycin analog (II) in combination with vancomycin, with vancomycin alone as a control."}, "[3]": {"details": "Example 3B, dose 0.01 mg/kg sc day 2 + vancomycin 110 mg/kg twice daily, day 4, LOD 250"}, "[4]": {"details": "Example 3B, dose 0.05 mg/kg sc day 2 + vancomycin 110 mg/kg twice daily, day 4, LOD 250"}, "[5]": {"details": "Example 3B, dose 0.25 mg/kg sc day 2 + vancomycin 110 mg/kg twice daily, day 4, LOD 250"}, "[6]": {"details": "dose 0.01 mg/kg + vancomycin 110 mg/kg twice daily"}, "[7]": {"details": "dose 0.05 mg/kg + vancomycin 110 mg/kg twice daily"}, "[8]": {"details": "dose 0.25 mg/kg + vancomycin 110 mg/kg twice daily"}}}
{"compound": "CO[C@H]1/C=C/O[C@@]2(C)Oc3c(C)c(O)c4c(O)c(c(/C=N/N5CCN(C)CC5)c(O)c4c3C2=O)NC(=O)/C(C)=C\\C=C\\[C@H](C)[C@H](O)[C@@H](C)[C@@H](O)[C@@H](C)[C@H](OC(C)=O)[C@@H]1C", "note": "[Rifampicin, reference compound]", "values": [{"measurement": "Median cfu/kidney pair", "setting": "[1]; Example 3A, dose 0.002 mg/kg + vancomycin 110 mg/kg twice daily, day 4, LOD 250", "value": "3.38E+06", "unit": "cfu/kidney pair"}, {"measurement": "Median cfu/kidney pair", "setting": "[1]; Example 3A, dose 0.01 mg/kg + vancomycin 110 mg/kg twice daily, day 4, LOD 250", "value": "3.00E+06", "unit": "cfu/kidney pair"}, {"measurement": "Median cfu/kidney pair", "setting": "[1]; Example 3A, dose 0.05 mg/kg + vancomycin 110 mg/kg twice daily, day 4, LOD 250", "value": "2.75E+06", "unit": "cfu/kidney pair"}, {"measurement": "Median cfu/kidney pair", "setting": "[1]; Example 3A, dose 0.25 mg/kg + vancomycin 110 mg/kg twice daily, day 4, LOD 250", "value": "2.50E+02", "unit": "cfu/kidney pair"}, {"measurement": "Median cfu/kidney pair", "setting": "[1]; Example 3A, dose 25 mg/kg + vancomycin 110 mg/kg twice daily, day 4, LOD 250", "value": "2.50E+02", "unit": "cfu/kidney pair"}, {"measurement": "Median cfu/kidney pair", "setting": "[1]; Example 3C, dose 25 mg/kg + vancomycin 110 mg/kg twice daily, day 4, LOD 250", "value": "2.50E+02", "unit": "cfu/kidney pair"}, {"measurement": "Median cfu/kidney pair", "setting": "[1]; Example 3C, dose 25 mg/kg, without vancomycin, day 4, LOD 250", "value": "7.07E+08", "unit": "cfu/kidney pair"}, {"measurement": "Median cfu/kidney pair", "setting": "[2]; dose 25 mg/kg + vancomycin 110 mg/kg twice daily", "value": "2.50E+02", "unit": "cfu/kidney pair"}]}
{"compound": "CO[C@H]1/C=C/O[C@@]2(C)Oc3c(C)c(O)c4c(=O)c(c5oc6cc(OCCN(C)C)cc(O)c6nc-5c4c3C2=O)NC(=O)/C(C)=C\\C=C\\[C@H](C)[C@H](O)[C@@H](C)[C@@H](O)[C@@H](C)[C@H](OC(C)=O)[C@@H]1C", "note": "[Rifamycin analog (I)]", "values": [{"measurement": "kidney burden reduction in combination with vancomycin, compared with rifampicin plus vancomycin (in words)", "setting": "[1]", "value": "effective at reducing S. aureus kidney burden at lower doses than rifampicin"}, {"measurement": "kidney burden, combination with vancomycin versus vancomycin alone (in words)", "setting": "[1]; Example 3B", "value": "further reduced kidney burden"}, {"measurement": "Median cfu/kidney pair", "setting": "[1]; [3]", "value": "5.88E+04", "unit": "cfu/kidney pair"}, {"measurement": "Median cfu/kidney pair", "setting": "[1]; [4]", "value": "5.75E+03", "unit": "cfu/kidney pair"}, {"measurement": "Median cfu/kidney pair", "setting": "[1]; [5]", "value": "2.50E+02", "unit": "cfu/kidney pair"}, {"measurement": "kidney burden relative to limit of detection (in words)", "setting": "[2]; 0.01-0.75 mg/kg + vancomycin", "value": "at or near the limit of detection"}, {"measurement": "Median cfu/kidney pair", "setting": "[2]; [6]", "value": "2.50E+02", "unit": "cfu/kidney pair"}, {"measurement": "Median cfu/kidney pair", "setting": "[2]; [7]", "value": "2.50E+02", "unit": "cfu/kidney pair"}, {"measurement": "Median cfu/kidney pair", "setting": "[2]; [8]", "value": "2.50E+02", "unit": "cfu/kidney pair"}, {"measurement": "Median cfu/kidney pair", "setting": "[2]; dose 0.75 mg/kg + vancomycin 110 mg/kg twice daily", "value": "2.50E+02", "unit": "cfu/kidney pair"}, {"measurement": "bacterial load relative to limit of detection (in words)", "setting": "[2]; dose of 0.01 mg/kg in combination with vancomycin", "value": "below the limit of detection"}]}
{"compound": "CO[C@H]1/C=C/O[C@@]2(C)Oc3c(C)c(O)c4c(=O)c(c5oc6cc(OCCN(C)C)ccc6nc-5c4c3C2=O)NC(=O)/C(C)=C\\C=C\\[C@H](C)[C@H](O)[C@@H](C)[C@@H](O)[C@@H](C)[C@H](OC(C)=O)[C@@H]1C", "note": "[Rifamycin analog (II)]", "values": [{"measurement": "reduction in S. aureus kidney burden", "setting": "[1]; 0.25 mg/kg as a monotherapy (Example 3C)", "value": "~3", "unit": "logs"}, {"measurement": "kidney burden reduction in combination with vancomycin, compared with rifampicin plus vancomycin (in words)", "setting": "[1]", "value": "effective at reducing S. aureus kidney burden at lower doses than rifampicin"}, {"measurement": "kidney burden, combination with vancomycin versus vancomycin alone (in words)", "setting": "[1]; Example 3B", "value": "further reduced kidney burden"}, {"measurement": "Median cfu/kidney pair", "setting": "[1]; [3]", "value": "2.50E+02", "unit": "cfu/kidney pair"}, {"measurement": "Median cfu/kidney pair", "setting": "[1]; [4]", "value": "2.50E+02", "unit": "cfu/kidney pair"}, {"measurement": "Median cfu/kidney pair", "setting": "[1]; [5]", "value": "3.38E+05", "unit": "cfu/kidney pair"}, {"measurement": "S. aureus kidney burden relative to limit of detection (in words)", "setting": "[1]; Example 3B, lowest tested dose 0.01 mg/kg + vancomycin", "value": "below the limit of detection"}, {"measurement": "combination with vancomycin versus monotherapies in reducing bacterial burden (in words)", "setting": "[1]; Example 3C", "value": "more effective than either monotherapy"}, {"measurement": "efficacy when rifamycin analog (II) and vancomycin are used in combination (in words)", "setting": "[1]; Example 3C", "value": "enhanced"}, {"measurement": "Median cfu/kidney pair", "setting": "[1]; Example 3C, dose 0.002 mg/kg + vancomycin 110 mg/kg twice daily, day 4, LOD 250", "value": "2.50E+02", "unit": "cfu/kidney pair"}, {"measurement": "Median cfu/kidney pair", "setting": "[1]; Example 3C, dose 0.002 mg/kg, without vancomycin, day 4, LOD 250", "value": "2.75E+07", "unit": "cfu/kidney pair"}, {"measurement": "Median cfu/kidney pair", "setting": "[1]; Example 3C, dose 0.01 mg/kg + vancomycin 110 mg/kg twice daily, day 4, LOD 250", "value": "2.50E+02", "unit": "cfu/kidney pair"}, {"measurement": "Median cfu/kidney pair", "setting": "[1]; Example 3C, dose 0.01 mg/kg, without vancomycin, day 4, LOD 250", "value": "5.13E+06", "unit": "cfu/kidney pair"}, {"measurement": "Median cfu/kidney pair", "setting": "[1]; Example 3C, dose 0.05 mg/kg + vancomycin 110 mg/kg twice daily, day 4, LOD 250", "value": "2.50E+02", "unit": "cfu/kidney pair"}, {"measurement": "Median cfu/kidney pair", "setting": "[1]; Example 3C, dose 0.05 mg/kg, without vancomycin, day 4, LOD 250", "value": "1.52E+08", "unit": "cfu/kidney pair"}, {"measurement": "Median cfu/kidney pair", "setting": "[1]; Example 3C, dose 0.25 mg/kg + vancomycin 110 mg/kg twice daily, day 4, LOD 250", "value": "3.75E+02", "unit": "cfu/kidney pair"}, {"measurement": "Median cfu/kidney pair", "setting": "[1]; Example 3C, dose 0.25 mg/kg, without vancomycin (monotherapy), day 4, LOD 250", "value": "2.13E+04", "unit": "cfu/kidney pair"}, {"measurement": "bacterial load relative to limit of detection (in words)", "setting": "[1]; Example 3C, low doses including 0.05 and 0.002 mg/kg, in combination with vancomycin", "value": "below the limit of detection"}, {"measurement": "kidney burden relative to limit of detection (in words)", "setting": "[2]; 0.002-0.25 mg/kg + vancomycin", "value": "at or near the limit of detection"}, {"measurement": "Median cfu/kidney pair", "setting": "[2]; dose 0.002 mg/kg + vancomycin 110 mg/kg twice daily", "value": "2.50E+02", "unit": "cfu/kidney pair"}, {"measurement": "Median cfu/kidney pair", "setting": "[2]; [6]", "value": "2.50E+02", "unit": "cfu/kidney pair"}, {"measurement": "Median cfu/kidney pair", "setting": "[2]; [7]", "value": "6.25E+02", "unit": "cfu/kidney pair"}, {"measurement": "Median cfu/kidney pair", "setting": "[2]; [8]", "value": "2.50E+02", "unit": "cfu/kidney pair"}, {"measurement": "bacterial load relative to limit of detection (in words)", "setting": "[2]; dose of 0.002 mg/kg in combination with vancomycin", "value": "below the limit of detection"}]}
{"compound": "Vancomycin [reference compound]", "values": [{"measurement": "Median cfu/kidney pair", "setting": "[1]; Example 3A, Balb/c mice, vancomycin alone 110 mg/kg sc twice daily days 1-3, day 4 post infection, limit of detection 250", "value": "1.30E+06", "unit": "cfu/kidney pair"}, {"measurement": "Median cfu/kidney pair", "setting": "[1]; Example 3B, vancomycin alone 110 mg/kg sc twice daily, day 4, LOD 250", "value": "3.50E+06", "unit": "cfu/kidney pair"}, {"measurement": "efficacy when rifamycin analog (II) and vancomycin are used in combination (in words)", "setting": "[1]; Example 3C", "value": "enhanced"}, {"measurement": "Median cfu/kidney pair", "setting": "[1]; Example 3C, vancomycin alone 110 mg/kg sc twice daily, day 4, LOD 250", "value": "1.13E+06", "unit": "cfu/kidney pair"}, {"measurement": "reduction in S. aureus kidney burden", "setting": "[1]; vancomycin treatment alone (Examples 3A, 3B, 3C)", "value": "2-3 log"}, {"measurement": "Median cfu/kidney pair", "setting": "[2]; vancomycin alone 110 mg/kg sc twice daily", "value": "3.88E+04", "unit": "cfu/kidney pair"}, {"measurement": "reduction in S. aureus kidney burden", "setting": "[2]; vancomycin treatment alone (Example 3D)", "value": "~4", "unit": "log"}]}
